The structures appear in SMILES notation. Bounds are passed on as bounds.

The record followed here is patent US12655130B2 (ASSEMBLY BIOSCIENCES, INC., priority 2020, dated 2026).

The first assay deals with HBV viral load (viral production from HepAD38 cells). The assay can be described thus: Activity of test compounds on viral production from HepAD38 cells (viral load by qPCR of HBV core sequence). The settings on record: Hepatitis B virus, HePAD38, 120 h, viral load lowering, 5 days, qPCR of supernatant, read-out: VL HepAD38 EC50 range. The assay is classed as cell-based. The procedure, abridged:
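EC50 and CC50 come from four-parameter logistic fits: HBV core DNA in supernatant by TaqMan qPCR against DNA standards, normalised to DMSO controls, and cell viability by CellTiter-Glo. Cells were plated at 50,000/well without tetracycline (2% FBS) and exposed to compounds (highest 10 μM) for 5 days, 37 °C.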
For the compound `Cc1cn[nH]c1C1(O)CC2CC(c3ncn(C)c3C(=O)Nc3ccc(F)c(Cl)c3)CC2C1` (centres unmarked) [Example 135, N-(3-chloro-4-fluorophenyl)-4-(5-hydroxy-5-(4-methyl-1H-pyrazol-5-yl)octahydropentalen-2-yl)-1-methyl-1H-imidazole-5-carboxamide], the EC50 is below 10 nM.

Take `Cc1nc(C2CC3CC(O)(c4nccn4C)CC3C2)c(C(=O)Nc2ccc(F)c(Cl)c2)n1C` (single isomer, unassigned) [Example 27, N-(3-Chloro-4-fluorophenyl)-4-(5-hydroxy-5-(1-methyl-1H-imidazol-2-yl)octahydropentalen-2-yl)-1,2-dimethyl-1H-imidazole-5-carboxamide]: the EC50 is below 10 nM.

For the compound `Cn1cnc(C2CC3CC(O)(c4cccc(F)c4)CC3C2)c1C(=O)Nc1ccc(F)c(Cl)c1` (centres unmarked) [Example 6, N-(3-Chloro-4-fluorophenyl)-4-(5-(3-fluorophenyl)-5-hydroxyoctahydropentalen-2-yl)-1-methyl-1H-imidazole-5-carboxamide], the concentration giving a half-maximal response (EC50) was below 10 nM.

For the compound `Cn1cnc(C2CC3CC(O)(c4c(F)c(C(C)(C)O)nn4C)CC3C2)c1C(=O)Nc1ccc(F)c(Cl)c1` (centres unmarked) [Example 66, N-(3-Chloro-4-fluorophenyl)-4-(5-(4-fluoro-3-(2-hydroxypropan-2-yl)-1-methyl-1H-pyrazol-5-yl)-5-hydroxyoctahydropentalen-2-yl)-1-methyl-1H-imidazole-5-carboxamide], the half-maximal effective concentration (EC50) was below 10 nM.

In the case of `CC(N)c1nn(C)cc1C1(O)CC2CC(c3ncn(C)c3C(=O)Nc3ccc(F)c(Cl)c3)CC2C1` (centres unmarked) [Example 184, 4-(5-(3-(1-Aminoethyl)-1-methyl-1H-pyrazol-4-yl)-5-hydroxyoctahydropentalen-2-yl)-N-(3-chloro-4-fluorophenyl)-1-methyl-1H-imidazole-5-carboxamide], the EC50 was below 10 nM.

Consider `Cn1cnc(C2CC3CC(O)(Cn4ccc(O)n4)CC3C2)c1C(=O)Nc1ccc(F)c(Cl)c1` (centres unmarked) [Example 95, N-(3-chloro-4-fluorophenyl)-4-(5-hydroxy-5-((3-hydroxy-1H-pyrazol-1-yl)methyl)octahydropentalen-2-yl)-1-methyl-1H-imidazole-5-carboxamide], for which the EC50 is 10 to 50 nM.

For the compound `CC(C)(C)OC(=O)N1CCn2c(nc(C3CC4CC(=O)CC4C3)c2C(=O)Nc2ccc(F)c(Cl)c2)C1` (centres unmarked) [Example 90, tert-butyl 3-((3-chloro-4-fluorophenyl)carbamoyl)-2-(5-oxooctahydro-pentalen-2-yl)-5,6-dihydroimidazo[1,2-a]pyrazine-7(8H)-carboxylate], the 50% effective concentration (EC50) was 50 to 500 nM.

Regarding `CCn1nc(NCC(C)(C)O)c(F)c1C1(O)CC2CC(c3ncn(C)c3C(=O)Nc3ccc(F)c(Cl)c3)CC2C1` (centres unmarked) [Example 215, N-(3-Chloro-4-fluorophenyl)-4-(5-(1-ethyl-4-fluoro-3-((2-hydroxy-2-methylpropyl)amino)-1H-pyrazol-5-yl)-5-hydroxyoctahydropentalen-2-yl)-1-methyl-1H-imidazole-5-carboxamide], the concentration for a half-maximal effect (EC50) was below 10 nM.

Turning to `Cn1cnc(C2CC3CC(O)(c4c(F)c(NCC(C)(C)O)nn4C)CC3C2)c1C(=O)Nc1ccc(F)c(Cl)c1` (centres unmarked) [Example 63, N-(3-Chloro-4-fluorophenyl)-4-(5-(4-fluoro-3-((2-hydroxy-2-methylpropyl)amino)-1-methyl-1H-pyrazol-5-yl)-5-hydroxyoctahydropentalen-2-yl)-1-methyl-1H-imidazole-5-carboxamide], the EC50 was below 10 nM.

For the compound `CCNc1cc(C2(O)CC3CC(c4ncn(C)c4C(=O)Nc4ccc(F)c(Cl)c4)CC3C2)n(C)n1` (centres unmarked) [Example 200, N-(3-Chloro-4-fluorophenyl)-4-(5-(3-(ethylamino)-1-methyl-1H-pyrazol-5-yl)-5-hydroxyoctahydropentalen-2-yl)-1-methyl-1H-imidazole-5-carboxamide], the EC50 is below 10 nM.

As to `CC(=O)N1CCn2c(nc(C3CC4CC(O)CC4C3)c2C(=O)Nc2ccc(F)c(Cl)c2)C1` (centres unmarked) [Example 87, 7-acetyl-N-(3-chloro-4-fluorophenyl)-2-(5-hydroxyoctahydropentalen-2-yl)-5,6,7,8-tetrahydroimidazo[1,2-a]pyrazine-3-carboxamide], the concentration for a half-maximal effect (EC50) was below 10 nM.

Take `CCn1nc(N)c(Cl)c1C1(O)CC2CC(c3ncn(C)c3C(=O)Nc3ccc(F)c(Cl)c3)CC2C1` (centres unmarked) [Example 168, 4-(5-(3-Amino-4-chloro-1-ethyl-1H-pyrazol-5-yl)-5-hydroxyoctahydropentalen-2-yl)-N-(3-chloro-4-fluorophenyl)-1-methyl-1H-imidazole-5-carboxamide]: the concentration giving a half-maximal response (EC50) lay in the range of 10 to 50 nM.

For the compound `Cn1cnc(C2CC3CC(O)(c4cc([N+](=O)[O-])nn4C)CC3C2)c1C(=O)Nc1ccc(F)c(Cl)c1` (single isomer, unassigned) [Example 50, N-(3-Chloro-4-fluorophenyl)-4-(5-hydroxy-5-(1-methyl-3-nitro-1H-pyrazol-5-yl)octahydropentalen-2-yl)-1-methyl-1H-imidazole-5-carboxamide], the EC50 was below 10 nM.

`Cc1nc(C2CC3CC(O)(CS(C)(=O)=O)CC3C2)c(C(=O)Nc2ccc(F)c(Cl)c2)n1C` (centres unmarked) [Example 25, N-(3-Chloro-4-fluorophenyl)-4-(5-hydroxy-5-((methylsulfonyl)methyl)octahydropentalen-2-yl)-1,2-dimethyl-1H-imidazole-5-carboxamide]: the concentration giving a half-maximal response (EC50) was below 10 nM.

Regarding `Cn1cnc(C2CC3CC(O)(c4c([N+](=O)[O-])cnn4C)CC3C2)c1C(=O)Nc1ccc(F)c(Cl)c1` (centres unmarked) [Example 127, N-(3-chloro-4-fluorophenyl)-4-(5-hydroxy-5-(1-methyl-4-nitro-1H-pyrazol-5-yl)octahydropentalen-2-yl)-1-methyl-1H-imidazole-5-carboxamide], the concentration giving a half-maximal response (EC50) was 10 to 50 nM.

`CN(Cc1ccccc1)c1nc(C2CC3CC(O)CC3C2)c(C(=O)Nc2ccc(F)c(Cl)c2)n1C` (centres unmarked) [Example 48, 2-(benzyl(methyl)amino)-N-(3-chloro-4-fluorophenyl)-4-(5-hydroxyoctahydropentalen-2-yl)-1-methyl-1H-imidazole-5-carboxamide]: the concentration for a half-maximal effect (EC50) was 50 to 500 nM.

For the compound `Cn1cnc(C2CC3CC(O)(c4cc(OCC(O)C(F)(F)F)nn4C)CC3C2)c1C(=O)Nc1ccc(F)c(Cl)c1` (centres unmarked) [Example 207, N-(3-Chloro-4-fluorophenyl)-4-(5-hydroxy-5-(1-methyl-3-(3,3,3-trifluoro-2-hydroxypropoxy)-1H-pyrazol-5-yl)octahydropentalen-2-yl)-1-methyl-1H-imidazole-5-carboxamide], the concentration for a half-maximal effect (EC50) is below 10 nM.

In the case of `CC(CO)Oc1cc(C2(O)CC3CC(c4ncn(C)c4C(=O)Nc4ccc(F)c(Cl)c4)CC3C2)n(C)n1` (single isomer, unassigned) [Example 68, N-(3-Chloro-4-fluorophenyl)-4-(5-hydroxy-5-(3-((1-hydroxypropan-2-yl)oxy)-1-methyl-1H-pyrazol-5-yl)octahydropentalen-2-yl)-1-methyl-1H-imidazole-5-carboxamide], the EC50 was below 10 nM.

Consider `Cn1cnc(C2CC3CC(O)(c4cc(C(C)(C)O)nn4C)CC3C2)c1C(=O)Nc1ccc(F)c(Cl)c1` (centres unmarked) [Example 59, N-(3-Chloro-4-fluorophenyl)-4-(5-hydroxy-5-(3-(2-hydroxypropan-2-yl)-1-methyl-1H-pyrazol-5-yl)octahydropentalen-2-yl)-1-methyl-1H-imidazole-5-carboxamide], for which the concentration for a half-maximal effect (EC50) was below 10 nM.

`COc1cnn(C)c1C1(O)CC2CC(c3ncn(C)c3C(=O)Nc3ccc(F)c(Cl)c3)CC2C1` (centres unmarked) [Example 134, N-(3-chloro-4-fluorophenyl)-4-(5-hydroxy-5-(4-methoxy-1-methyl-1H-pyrazol-5-yl)octahydropentalen-2-yl)-1-methyl-1H-imidazole-5-carboxamide]: the EC50 is below 10 nM.

`CCOC(=O)CC1CC2CC(c3ncn(C)c3C(=O)Nc3ccc(F)c(Cl)c3)CC2C1` (centres unmarked) [Example 16, Ethyl 2-(5-(5-((3-chloro-4-fluorophenyl)carbamoyl)-1-methyl-1H-imidazol-4-yl)octahydropentalen-2-yl)acetate]: the 50% effective concentration (EC50) was below 10 nM.

`CC(C)n1nc(N)cc1C1(O)CC2CC(c3ncn(C)c3C(=O)Nc3ccc(F)c(Cl)c3)CC2C1` (centres unmarked) [Example 77, 4-(5-(3-Amino-1-Isopropyl-1H-pyrazol-5-yl)-5-hydroxyoctahydropentalen-2-yl)-N-(3-chloro-4-fluorophenyl)-1-methyl-1H-imidazole-5-carboxamide]: the concentration giving a half-maximal response (EC50) is below 10 nM.

Regarding `Cn1cnc(C2CC3CC(O)(c4cc(OCC(O)CO)nn4C)CC3C2)c1C(=O)Nc1ccc(F)c(Cl)c1` (single isomer, unassigned) [Example 205, N-(3-Chloro-4-fluorophenyl)-4-(5-(3-(2,3-dihydroxypropoxy)-1-methyl-1H-pyrazol-5-yl)-5-hydroxyoctahydropentalen-2-yl)-1-methyl-1H-imidazole-5-carboxamide], the 50% effective concentration (EC50) was below 10 nM.

For the compound `Cn1cnc(C2CC3CC(O)(c4c(Br)c(C#N)nn4C)CC3C2)c1C(=O)Nc1ccc(F)c(Cl)c1` (centres unmarked) [Example 181, 4-(5-(4-Bromo-3-cyano-1-methyl-1H-pyrazol-5-yl)-5-hydroxyoctahydropentalen-2-yl)-N-(3-chloro-4-fluorophenyl)-1-methyl-1H-imidazole-5-carboxamide], the EC50 is below 10 nM.

On to `Cc1nn(C)c(C2(O)CC3CC(c4ncn(C)c4C(=O)Nc4ccc(F)c(Cl)c4)CC3C2)c1F` (centres unmarked) [Example 92, N-(3-chloro-4-fluorophenyl)-4-(5-(4-fluoro-1,3-dimethyl-1H-pyrazol-5-yl)-5-hydroxyoctahydropentalen-2-yl)-1-methyl-1H-imidazole-5-carboxamide], for which the EC50 is below 10 nM.

Still in this assay, the particulars now being: viral load lowering, 5 days, qPCR of supernatant, read-out: VL HepAD38 EC50 range.
With `CC(O)COc1cc(C2(O)CC3CC(c4ncn(C)c4C(=O)Nc4ccc(F)c(Cl)c4)CC3C2)n(C)n1` (single isomer, unassigned) [Example 210, N-(3-Chloro-4-fluorophenyl)-4-(5-hydroxy-5-(3-(2-hydroxypropoxy)-1-methyl-1H-pyrazol-5-yl)octahydropentalen-2-yl)-1-methyl-1H-imidazole-5-carboxamide], the concentration for a half-maximal effect (EC50) is below 10 nM.
